Data set [1] deals with cardiac tissue model (hiPSC-derived cardiomyocytes co-cultured with vascular-like network). As to the kind of experiment: Multielectrode array (MEA) field potential recording: FPD, beating frequency, Na+ spike amplitude. It is filed as cell-based, human. The settings on record: for effect on FPD (in words) / signs of cardio activity or toxicity: MEA; for effect on FPD (in words): acute cumulative exposure; for signs of cardio activity or toxicity: negative controls, up to 30 µM. The method, then: Hydrophobic compounds were solubilized in DMSO as 10 mM stocks. The water-soluble compounds were solubilized in distilled water as 1 mM stocks.
Extracellular field potentials were recorded using a Multiwell-MEA-System (Multi Channel Systems) with a 20 kHz sampling frequency on days 8–9 after cardiomyocyte seeding. The temperature was set at 37 °C and the cells were supplied with 5% CO2 during the measurements. Two-minute recordings were obtained as spontaneous baseline beating, after which the cardiac tissue models were exposed to a ½ logarithmic cumulative concentration series spanning from […] of the test compounds. With 24-well plates four replicate wells and with 96-well plates eight replicate wells were used for each compound. The wash-in period between administration of the test compounds and 2-min recording was 8 min. The field potentials were recorded with Multiwell-Screen software (Multi Channel Systems) and analysed with Multiwell-Analyzer software (Multi Channel Systems). The data from the electrodes showing clear beating patterns, sodium spike voltage change over 70 µV, and a detectable T-wave were used for the analyses. Data obtained from the electrodes of one well were averaged. In the analyses, each well was treated as an individual and (the ratio of) test compound-induced changes were calculated against the recorded baseline from the same well. The data was normalized only against the baseline values, not against the vehicle control. All the field potential durations (FPD) were corrected against the changes in beating frequency using the Fridericia formula cFPD=FPD/RR3 , where RR is the RR interval.
For each compound, we analysed the effects on FPD, beat rate and amplitude. We selected one MEA parameter based on their mechanism of action. FPD, that corresponds to the QT interval[59], was selected for compounds that are known to affect the QT time e.g., by targeting hERG or Ca^2+ channels. Beat rate was selected for compounds that target adrenergic receptors.
For the electrophysiology measurements, the chosen sample size was either 4 when using 24-well MEA plates with 12 electrodes per well and 8 when using 96-well MEA plates with 3 electrodes per well. The reported n stands for the number of wells (cardiac tissue models) per repetition of the study. Each test was repeated 3 times using 4–8 parallels in each concentration. Excel (Microsoft) was used for to calculate the p-values using Student’s two-tailed t-test. EC50 and IC50 values were calculated using non-linear fit four-parameters logistic equation Prism version 5.0. (GraphPad). The baseline values were used as Emin.

For data set [2] the following is noted: free plasma concentration from the literature; cited from earlier work.
The test system of data set [3] is calcium channels. Further details: method as in PMID 17078945. The settings on record: cited from earlier work.
For data set [4], the system named is sodium channels. Further details: method as in PMID 10069689. The settings on record: canine atrial myocytes; cited from earlier work.
Data set [5] concerns QT interval. Conditions: cited from earlier work.
In data set [6] the test system is QT interval. Conditions: cited from earlier work. This is another data set of the same source.
For data set [7], the system named is hiPSC-derived cardiomyocytes. Further details: method as in PMID 28456566. The settings on record: cited from earlier work.
On the set-up of data set [8]: method as in PMID 6599419. The settings on record: humans; cited from earlier work.

Molecules are shown by their SMILES.

The term IC50 denotes the point on the concentration scale where inhibition reaches its midpoint. Regarding `CC(C)(C)c1ccc(C(O)CCCN2CCC(C(O)(c3ccccc3)c3ccccc3)CC2)cc1` (stereo not drawn) [Terfenadine], the “effect on FPD (in words)” value in data set [1] is “FPD shortening”. Moreover, the “increase in FPD before the shortening of FPD initiated” value in data set [1] (non-significant) is listed as 10%. Also, the Therapeutic concentration in data set [2] was 300[21] nM. In addition, the IC50 in data set [3] was 185 nM; in data set [4], 930 nM.

Regarding `CC(C)NCC(O)c1ccc(O)c(O)c1` (stereo not drawn) [Isoprenaline], in data set [2], the Therapeutic concentration is 0.84[63] nM.

In the case of `CCN(CC)CC(=O)Nc1c(C)cccc1C` [Lidocaine], the Therapeutic concentration in data set [2] is 2500[29] nM.

As to `CC(=O)Oc1ccccc1C(=O)O` [Acetyl salicylic acid], the “signs of cardio activity or toxicity” value in data set [1] is recorded as “None”.

Turning to `COC(=O)C1=C(C)NC(C)=C(C(=O)OC)C1c1ccccc1[N+](=O)[O-]` [Nifedipine], the Therapeutic concentration in data set [2] is 190[60] nM.

`O=c1[nH]c2ccccc2n1C1CCN(CCCC(c2ccc(F)cc2)c2ccc(F)cc2)CC1` [Pimozide]: the Therapeutic concentration in data set [2] is 3.7[61] nM.

With `C[C@H]1O[C@@H](O[C@H]2[C@@H](O)C[C@H](O[C@H]3[C@@H](O)C[C@H](O[C@H]4CC[C@@]5(C)[C@H](CC[C@@H]6[C@@H]5C[C@@H](O)[C@]5(C)[C@@H](C7=CC(=O)OC7)CC[C@]65O)C4)O[C@@H]3C)O[C@@H]2C)C[C@H](O)[C@@H]1O` [Digoxin], the Therapeutic concentration in data set [2] was 2.8[61] nM.

Turning to `CC(C)Cc1ccc(C(C)C(=O)O)cc1` (stereo not drawn) [Ibuprofen], in data set [1], the “signs of cardio activity or toxicity” value is reported as “None”.

Consider `Cc1ccc(O)c([C@H](CCN(C(C)C)C(C)C)c2ccccc2)c1` [Tolterodine], for which the Therapeutic concentration in data set [2] is listed as 5 nM. Besides, the “QT interval in clinical use” value in data set [5] is given as “does not prolong the QT interval”. In addition, the “in vivo concentration corresponding to the QT-prolonging concentration in vitro” value in data set [6] (very high concentration in vitro) is recorded as 340 nM.

For `NCCc1ccc(O)c(O)c1` [Dopamine], the Therapeutic concentration in data set [2] is reported as 300 (20% increase) nM.

Turning to `COc1ccccc1OCC(O)CN1CCN(CC(=O)Nc2c(C)cccc2C)CC1` (stereo not drawn) [Ranolazine], the Therapeutic concentration in data set [2] was 6010[21] nM.

On to `N=C(N)c1ccc(OCCCCCOc2ccc(C(=N)N)cc2)cc1` [Pentamidine], for which the “effect on FPD (in words)” value in data set [1] is “could not detect any significant FPD prolongation”. Also, in data set [2], the Therapeutic concentration was 190[61] nM.

In the case of `CC(C)NCC(O)COc1cccc2ccccc12` (stereo not drawn) [Propranolol], the Therapeutic concentration in data set [2] is 1095[64] nM.

`CN(CCOc1ccc(NS(C)(=O)=O)cc1)CCc1ccc(NS(C)(=O)=O)cc1` [Dofetilide]: the Therapeutic concentration in data set [2] is 2[60] nM.

For the compound `CCCCCCc1ccc(O)cc1O` [Hexylresorcinol], in data set [1], the “signs of cardio activity or toxicity” value is recorded as “None”.

On to `O=C(CCCN1CCC(O)(c2ccc(Cl)cc2)CC1)c1ccc(F)cc1` [Haloperidol], for which the Therapeutic concentration in data set [2] is 45[60] nM.

On to `COc1cccc2c1C(=O)c1c(O)c3c(c(O)c1C2=O)C[C@@](O)(C(=O)CO)C[C@@H]3O[C@H]1C[C@H](N)[C@H](O)[C@H](C)O1` [Doxorubicin], for which the “changes to FPD, BPM or amplitude” value in data set [1] (short-term experiments, exposures up to 2 h) is given as “could not detect any”. The “apoptosis of hiPSC-derived cardiomyocytes” value in data set [7] (after two days of exposure) is reported as “increase”. Besides, the “effect on FPD or beat rate” value in data set [7] (short exposures) is listed as “not to affect”.

In the case of `CC(CC(c1ccccc1)c1ccccc1)NC(C)(C)C` (stereo not drawn) [Terodiline], the EC50 in data set [1] (Homo sapiens, Cardiomyocyte, as rounded in the discussion, read-out: amplitude EC50 concentration) was 2600 nM. In data set [1], the “effect on FPD (in words)” value was “did not detect the expected FPD prolongation”. For the same compound, the Therapeutic concentration in data set [2] was 1800[60] nM. Also, in data set [8], the toxic plasma concentration was 2.1 µM.

Regarding `COc1ccc(CCN2CCC(Nc3nc4ccccc4n3Cc3ccc(F)cc3)CC2)cc1` [Astemizole], in data set [2], the Therapeutic concentration was 8[21] nM.

Take `COc1cc2nc(N(C)CCCNC(=O)C3CCCO3)nc(N)c2cc1OC` (stereo not drawn) [Alfuzosin]: the “increase in FPD” value in data set [1] (at 300 nM, statistically significant) stood at 20%. Further, in data set [2], the Therapeutic concentration is 56[21] nM. Further, the “QT effect in patients” value in data set [5] (at high doses (100 nM)) is “mild QT increase”. For the same compound, the “concentration that significantly prolongs the QT interval in vitro” value in data set [6] was 300 nM.

With `CNC[C@H](O)c1ccc(O)c(O)c1` [Epinephrine], the Therapeutic concentration in data set [2] was 2.64[62] nM.

Take `COc1c(N2C[C@@H]3CCCN[C@@H]3C2)c(F)cc2c(=O)c(C(=O)O)cn(C3CC3)c12` [Moxifloxasin]: in data set [2], the Therapeutic concentration was 5600[60] nM.

Consider `C[C@@H]1CC(=O)NN=C1c1ccc(NN=C(C#N)C#N)cc1` [Levosimendan], for which the Therapeutic concentration in data set [2] is 129[21] nM.

As for `COC(=O)C1=C(C)NC(C)=C(C(=O)OC(C)C)C1c1cccc2nonc12` (stereo not drawn) [Isradipine], the Therapeutic concentration in data set [2] was 80[61] nM.

Consider `C=C[C@H]1C[N@@]2CC[C@H]1C[C@@H]2[C@@H](O)c1ccnc2ccc(OC)cc12` [Quinidine], for which the Therapeutic concentration in data set [2] is 3240[60] nM.

Take `COc1cc(N)c(Cl)cc1C(=O)NC1CCN(CCCOc2ccc(F)cc2)CC1OC` (stereo not drawn) [Cisapride]: in data set [2], the Therapeutic concentration was 2.5[29] nM.

On to `CC(C)NCC(O)c1ccc(NS(C)(=O)=O)cc1` (stereo not drawn) [Sotalol], for which, in data set [2], the Therapeutic concentration is 13,000[60] nM.

Values taken from article PMC9355975, “Functional human cell-based vascularised cardiac tissue model for biomedical research and testing” (Scientific Reports, 2022).
